Measurements: PubChem BioAssay (NCI)
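Compound exposure: 48 hours, 5 concentrations, 96-well plates. TGI: total growth inhibition.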

Experiments:
Test in all cases: NCI-60 cell line screen, 48 h
DMS 114 small cell lung = tested on: DMS 114 small cell lung
NCI-H23 lung = tested on: NCI-H23 lung
CCRF-CEM leukemia = tested on: CCRF-CEM leukemia
MALME-3M melanoma = tested on: MALME-3M melanoma
LOX IMVI melanoma = tested on: LOX IMVI melanoma
U251 CNS = tested on: U251 CNS
A498 renal = tested on: A498 renal
LXFL 529 NSCLC = tested on: LXFL 529 NSCLC
HCT-15 colon = tested on: HCT-15 colon
M14 melanoma = tested on: M14 melanoma
SR leukemia = tested on: SR leukemia
SK-OV-3 ovarian = tested on: SK-OV-3 ovarian
OVCAR-4 ovarian = tested on: OVCAR-4 ovarian
RPMI-8226 leukemia = tested on: RPMI-8226 leukemia
K-562 leukemia = tested on: K-562 leukemia
IGROV1 ovarian = tested on: IGROV1 ovarian
MOLT-4 leukemia = tested on: MOLT-4 leukemia
HL-60(TB) leukemia = tested on: HL-60(TB) leukemia
CAKI-1 renal = tested on: CAKI-1 renal
UACC-257 melanoma = tested on: UACC-257 melanoma
NCI-H460 lung = tested on: NCI-H460 lung
NCI-H226 lung = tested on: NCI-H226 lung
M19-MEL melanoma = tested on: M19-MEL melanoma
SNB-75 CNS = tested on: SNB-75 CNS
UO-31 renal = tested on: UO-31 renal
OVCAR-5 ovarian = tested on: OVCAR-5 ovarian
SF-295 CNS = tested on: SF-295 CNS
DLD-1 colon = tested on: DLD-1 colon
DMS 273 small cell lung = tested on: DMS 273 small cell lung
SW-620 colon = tested on: SW-620 colon
SK-MEL-28 melanoma = tested on: SK-MEL-28 melanoma
COLO 205 colon = tested on: COLO 205 colon
HCT-116 colon = tested on: HCT-116 colon
NCI-H522 lung = tested on: NCI-H522 lung
HOP-62 NSCLC = tested on: HOP-62 NSCLC
KM12 colon = tested on: KM12 colon
A549 NSCLC = tested on: A549 NSCLC
TK-10 renal = tested on: TK-10 renal
SF-539 CNS = tested on: SF-539 CNS
ACHN renal = tested on: ACHN renal
HOP-18 NSCLC = tested on: HOP-18 NSCLC
786-0 renal = tested on: 786-0 renal
SN12C renal = tested on: SN12C renal
HOP-92 NSCLC = tested on: HOP-92 NSCLC
RXF 393 renal = tested on: RXF 393 renal
UACC-62 melanoma = tested on: UACC-62 melanoma
HT29 colon = tested on: HT29 colon
SK-MEL-2 melanoma = tested on: SK-MEL-2 melanoma
SF-268 CNS = tested on: SF-268 CNS
OVCAR-8 ovarian = tested on: OVCAR-8 ovarian
SK-MEL-5 melanoma = tested on: SK-MEL-5 melanoma
EKVX NSCLC = tested on: EKVX NSCLC
SNB-19 CNS = tested on: SNB-19 CNS
KM20L2 colon = tested on: KM20L2 colon
OVCAR-3 ovarian = tested on: OVCAR-3 ovarian
HCC-2998 colon = tested on: HCC-2998 colon

Compound: Cc1nc2ccccc2c(=O)n1NC(=S)Nc1ccccc1
- TGI (DMS 114 small cell lung): > 100 µM
- TGI (NCI-H23 lung): > 100 µM
- TGI (CCRF-CEM leukemia): > 100 µM
- TGI (MALME-3M melanoma): > 100 µM
- TGI (LOX IMVI melanoma): > 100 µM
- TGI (U251 CNS): > 100 µM
- TGI (A498 renal): > 100 µM
- TGI (LXFL 529 NSCLC): > 100 µM
- TGI (HCT-15 colon): > 100 µM
- TGI (M14 melanoma): > 100 µM
- TGI (SR leukemia): > 100 µM
- TGI (SK-OV-3 ovarian): > 100 µM
- TGI (OVCAR-4 ovarian): > 100 µM
- TGI (RPMI-8226 leukemia): > 100 µM
- TGI (K-562 leukemia): > 100 µM
- TGI (IGROV1 ovarian): > 100 µM
- TGI (MOLT-4 leukemia): > 100 µM
- TGI (HL-60(TB) leukemia): > 100 µM
- TGI (CAKI-1 renal): > 100 µM
- TGI (UACC-257 melanoma): > 100 µM
- TGI (NCI-H460 lung): > 100 µM
- TGI (NCI-H226 lung): > 100 µM
- TGI (M19-MEL melanoma): > 100 µM
- TGI (SNB-75 CNS): > 100 µM
- TGI (UO-31 renal): > 100 µM
- TGI (OVCAR-5 ovarian): > 100 µM
- TGI (SF-295 CNS): > 100 µM
- TGI (DLD-1 colon): > 100 µM
- TGI (DMS 273 small cell lung): > 100 µM
- TGI (SW-620 colon): > 100 µM
- TGI (SK-MEL-28 melanoma): > 100 µM
- TGI (COLO 205 colon): > 100 µM
- TGI (HCT-116 colon): > 100 µM
- TGI (NCI-H522 lung): > 100 µM
- TGI (HOP-62 NSCLC): > 100 µM
- TGI (KM12 colon): > 100 µM
- TGI (A549 NSCLC): > 100 µM
- TGI (TK-10 renal): > 100 µM
- TGI (SF-539 CNS): > 100 µM
- TGI (ACHN renal): > 100 µM
- TGI (HOP-18 NSCLC): > 100 µM
- TGI (786-0 renal): > 100 µM
- TGI (SN12C renal): > 100 µM
- TGI (HOP-92 NSCLC): > 100 µM
- TGI (RXF 393 renal): > 100 µM
- TGI (UACC-62 melanoma): > 100 µM
- TGI (HT29 colon): > 100 µM
- TGI (SK-MEL-2 melanoma): > 100 µM
- TGI (SF-268 CNS): > 100 µM
- TGI (OVCAR-8 ovarian): > 100 µM
- TGI (SK-MEL-5 melanoma): > 100 µM

Compound: CCCC(=O)c1ccc2c(ccc(=O)n2C)c1
- TGI (DMS 114 small cell lung): > 100 µM
- TGI (NCI-H23 lung): > 100 µM
- TGI (CCRF-CEM leukemia): > 100 µM
- TGI (MALME-3M melanoma): > 100 µM
- TGI (LOX IMVI melanoma): > 100 µM
- TGI (U251 CNS): > 100 µM
- TGI (A498 renal): > 100 µM
- TGI (LXFL 529 NSCLC): > 100 µM
- TGI (HCT-15 colon): > 100 µM
- TGI (EKVX NSCLC): > 100 µM
- TGI (SNB-19 CNS): > 100 µM
- TGI (M14 melanoma): > 100 µM
- TGI (SK-OV-3 ovarian): > 100 µM
- TGI (OVCAR-4 ovarian): > 100 µM
- TGI (RPMI-8226 leukemia): > 100 µM
- TGI (K-562 leukemia): > 100 µM
- TGI (IGROV1 ovarian): > 100 µM
- TGI (MOLT-4 leukemia): > 100 µM
- TGI (HL-60(TB) leukemia): > 100 µM
- TGI (CAKI-1 renal): > 100 µM
- TGI (KM20L2 colon): > 100 µM
- TGI (NCI-H460 lung): > 100 µM
- TGI (NCI-H226 lung): > 100 µM
- TGI (M19-MEL melanoma): > 100 µM
- TGI (SNB-75 CNS): 92.3 µM
- TGI (OVCAR-5 ovarian): > 100 µM
- TGI (SF-295 CNS): > 100 µM
- TGI (OVCAR-3 ovarian): > 100 µM
- TGI (DLD-1 colon): > 100 µM
- TGI (DMS 273 small cell lung): > 100 µM
- TGI (SW-620 colon): > 100 µM
- TGI (SK-MEL-28 melanoma): > 100 µM
- TGI (COLO 205 colon): > 100 µM
- TGI (HCT-116 colon): > 100 µM
- TGI (NCI-H522 lung): > 100 µM
- TGI (HOP-62 NSCLC): > 100 µM
- TGI (KM12 colon): > 100 µM
- TGI (A549 NSCLC): > 100 µM
- TGI (TK-10 renal): > 100 µM
- TGI (SF-539 CNS): > 100 µM
- TGI (HOP-18 NSCLC): > 100 µM
- TGI (786-0 renal): > 100 µM
- TGI (SN12C renal): > 100 µM
- TGI (HOP-92 NSCLC): > 100 µM
- TGI (UACC-62 melanoma): > 100 µM
- TGI (HCC-2998 colon): > 100 µM
- TGI (HT29 colon): > 100 µM
- TGI (SK-MEL-2 melanoma): > 100 µM
- TGI (SF-268 CNS): > 100 µM
- TGI (OVCAR-8 ovarian): > 100 µM
- TGI (SK-MEL-5 melanoma): > 100 µM
